Where two headings read alike, the source gives them in different places.

One data set relates to tumor cell lines. Nature of the data set: In vitro activity against tumor cell lines. The data set is classed as cell-based.
Data set [1] in a line: Pharmacokinetics in laboratory animals, fasted state versus fed state. The class given is in vivo.
Data set [2] has as its system lung, colon, prostate, pancreatic and brain tumors. Description: Mouse tumor models. The data set is classed as in vivo.
The test system of a further data set is RAD51. Description: Pre-clinical models, expression of DNA repair genes. From the text: Following chemotherapy and/or radiation treatment, some patient's tumors may turn on certain genes as a strategy by the tumor to adapt to the therapy and become resistant to cell death. One example of a genetic change that occurs in many cancers is the activation of the DNA repair gene RAD51. In response to treatment with DNA-damaging chemotherapy or radiation, tumors will often turn on DNA repair genes (including RAD51) as an adaptive strategy to help the tumor repair the DNA damage done by these agents.

Data set [3] can be described thus: Clinical pharmacokinetics of abexinostat, IV and oral dosing. The following applies: human, in vivo; for bioavailability: humans; for AUC(0-inf): humans with cancer, solution form, read-out: Systemic exposure measured as AUC0-∞. The protocol: In clinical trials involving humans with cancer, abexinostat in solution form was administered at 2 mg/kg as a single oral dose and as multiple 2-hour IV infusion doses.

Data set [4] can be described thus: Site of absorption of abexinostat.
Data set [5] is described as follows: Incidence of thrombocytopenia by dosing frequency. The class given is in vivo, human. The following applies: twice a day dosing compared to three times a day dosing. As for the experimental part:
In some embodiments, abexinostat (or a salt thereof; e.g., abexinostat HCl) is administered once per day during a cycle of abexinostat (or a salt thereof; e.g., abexinostat HCl). In some embodiments, abexinostat (or a salt thereof; e.g., abexinostat HCl) is administered twice per day during a cycle of abexinostat (or a salt thereof; e.g., abexinostat HCl). In some embodiments, abexinostat (or a salt thereof; e.g., abexinostat HCl) is administered three times per day during a cycle of abexinostat (or a salt thereof; e.g., abexinostat HCl).
In certain instances, thrombocytopenia is a side effect observed in humans that receive treatment with HDAC inhibitor compounds. Grade 4 thrombocytopenia typically includes instances when the human has a platelet count less than 25,000 per […]. Thrombocytopenia may be ameliorated or avoided by lowering the daily dose of abexinostat. In some embodiment, a method disclosed herein further comprises an abexinostat (or a salt thereof; e.g., abexinostat HCl) drug holiday following an abexinostat (or a salt thereof; e.g., abexinostat HCl) cycle.

The subject of the next data set is primary human tumors. Nature of the data set: Ex vivo activity in primary human tumors. The data set is classed as cell-based. To be noted: tumors from patients.

One may read the bioavailability as the share of a dose that reaches the circulation, judged against a reference dose that is usually intravenous. Low values mean poor availability, high ones good availability. As to `CN(C)Cc1c(C(=O)NCCOc2ccc(C(=O)NO)cc2)oc2ccccc12` [abexinostat, N-hydroxy-4-{2-[3-(N,N-dimethylaminomethyl)benzofuran-2-ylcarbonylamino]ethoxy}-benzamide], the “activity against tumor cell lines” value in the data set with tumor cell lines was “active against many tumor cell lines”. The “pharmacokinetics, fasted state versus fed state” value in data set [1] is given as “difference in pharmacokinetics was observed”. Further, the “efficacy in mouse tumor models” value in data set [2] was “efficacious in mouse models of lung, colon, prostate, pancreatic and brain tumors”. The “effect on RAD51 (and other DNA repair genes)” value in the data set on RAD51 was “able to turn off RAD51”. In addition, the bioavailability in data set [3] (2 mg/kg, administered as immediate release capsules or an oral solution) is roughly 27%; in data set [3] (from AUC0-∞ of oral versus IV dosing at 2 mg/kg), roughly 27%. Also, the AUC(0-inf) in data set [3] (2 mg/kg, multiple 2-hour IV infusion doses) was found to be 5.9 µM·h; in data set [3] (2 mg/kg, single oral dose), 1.45 µM·h. Further, in data set [4], the site of absorption result is recorded as “preferentially absorbed in the intestines”. For the same compound, the incidences of thrombocytopenia entry in data set [5] is reported as “reduces the incidences of thrombocytopenia”. Further, in the data set with primary human tumors, the “activity in primary human tumors” value is “active in primary human tumors from patients with colon, ovarian, lung and many hematological cancers”.

(Values after patent US20150335609A1, “COMBINATIONS OF HISTONE DEACETYLASE INHIBITOR AND PAZOPANIB AND USES THEREOF” (Pharmacyclics, Inc., priority 2012, published 2015).)
